The values that follow come from ChEMBL document CHEMBL3232704, “Discovery of mixed type thymidine phosphorylase inhibitors endowed with antiangiogenic properties: synthesis, pharmacological evaluation and molecular docking study of 2-thioxo-pyrazolo[1,5-a][1,3,5]triazin-4-ones. Part II” (Eur J Med Chem, 2014).

A short description of the data set: Cytotoxicity against human MDA-MB-231 cells assessed as cell viability at 25 to 100 uM after 72 hrs by MTT assay relative to control. In kind it is cell-based. Particulars: read-out: Activity.
Turning to `O=c1[nH]c(=S)[nH]c2cc(-c3ccc(Cl)c(Cl)c3)nn12`, the viability at 72 h, up to 100 µM was 80%.

For `O=c1[nH]c(=O)c2cc[nH]c2[nH]1` [7-DEAZAXANTHINE], the viability at 72 h, up to 100 µM is 80%. As to `NC(=S)Nc1nn2c(=O)[nH]c(=S)[nH]c2c1Cc1ccc(-c2ccccc2)cc1`, the viability at 72 h, up to 100 µM was determined as 80%. As to `NC(=S)Nc1nn2c(=O)[nH]c(=S)[nH]c2c1Cc1ccc(Oc2ccccc2)cc1`, the viability at 72 h, up to 100 µM turned out to be 80%. Regarding `NC(=S)Nc1nn2c(=O)[nH]c(=S)[nH]c2c1Cc1cccc2ccccc12`, the viability at 72 h, up to 100 µM amounted to 80%. Next, `NC(=S)Nc1nn2c(=O)[nH]c(=S)[nH]c2c1Cc1ccc(C(F)(F)F)cc1`: 80%.
